Key:
recombinant human TRα = target: T1, recombinant human TRα (Homo sapiens, UniProt P10827); assay: biochemical; details: TR[…] (IC50, nM), displacement of 125I-T3 (0.16 nM)
T1 sequence (P10827 190-410 isoform P10827-2): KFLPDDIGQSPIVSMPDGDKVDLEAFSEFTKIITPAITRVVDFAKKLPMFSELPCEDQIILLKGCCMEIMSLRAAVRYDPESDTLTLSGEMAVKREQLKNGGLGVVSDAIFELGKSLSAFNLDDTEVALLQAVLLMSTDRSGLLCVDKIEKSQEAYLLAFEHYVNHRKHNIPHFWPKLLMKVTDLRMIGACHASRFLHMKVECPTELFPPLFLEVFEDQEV
Description: (§1) Thyroid Hormone Receptor Binding Test
(§2) (1) Preparation of Fused Protein Having Ligand Binding Region of Thyroid Hormone Receptor
(§3) Human TRα and human TRβ ligand binding domains were expressed in Escherichia coli as a fused protein (recombinant human TRα or recombinant human TRβ) having TRα and TRβ ligand binding domains at a C-terminus of His-Patch Thioredoxin using the His-Patch Thioredoxin fusing protein expressing system (Invitrogen).
(§4) A nucleotide sequence of a region corresponding to the fused protein was confirmed by DNA sequence analysis.
(§5) Escherichia coli by which the fused protein had been subjected to expression inducement were collected by a centrifugation method, and ground using ultrasound to prepare a ground cell liquid containing the fused protein. The ground cell liquid was centrifuged at 15000 rpm for about 30 minutes, and a solution containing the fused protein from the supernatant using a nickel chelating column was obtained. An NAP-10 column was replaced with a binding solution (20 mM, Tris-HCl, 0.15 M NaCl, 8% Glycerol, 0.1% BSA, 1 mM EDTA, 10 mM 2-melcaptethanol). The resulting binding solution containing the fused protein was frozen and stored at −70° C. or lower.
(§6) (2) Binding Affinity for Thyroid Hormone Receptor
(§7) This binding solution (60 μL) was added to all wells of a 96-well plate (MILLIPORE MultiScreen-HV, Cat. No. MANVN4550, Lot. No. F4SN86613). […] 80 μL of SephadexG25 was added to each well of MultiScreen-HV (MILLIPORE, Cat. No. MANVN4550, Lot. No. F4SN86613), the binding solution was added to sufficiently swell, and this was centrifuged at 600×g for 1 minute to prepare a column of SephadexG25. […] Again, 25 μL untreated binding solution was overlaid on the SephadexG25 column, and this was immediately centrifuged at 600×g for 1 minute. […] As an amount of recombinant human TRα or recombinant human TRβ used in the present test, an amount by which proper radioactivity is obtained in a range where an addition amount of the receptor and an amount of the complex in the above test system, was used.
(§8) This was divided by the total complex amount to calculate a binding rate as the following equation:
(§9) Binding rate=remaining complex amount/total complex amount

recombinant human TRβ = target: T2, recombinant human TRβ (Homo sapiens, UniProt P10828); assay: biochemical; details: TR[…] (IC50, nM), displacement of 125I-T3 (0.16 nM)
T2 sequence (P10828 244-461): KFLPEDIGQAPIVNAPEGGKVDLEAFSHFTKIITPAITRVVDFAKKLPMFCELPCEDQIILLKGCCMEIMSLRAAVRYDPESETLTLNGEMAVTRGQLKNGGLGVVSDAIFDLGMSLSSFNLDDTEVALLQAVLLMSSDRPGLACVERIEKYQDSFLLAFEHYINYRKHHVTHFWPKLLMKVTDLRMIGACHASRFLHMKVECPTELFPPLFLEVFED
Description: as §1, §2, §3, §4, §5, §6, §7, §8, §9

Row | Structure (SMILES) | IC50 (recombinant human TRα) [nM] | IC50 (recombinant human TRβ) [nM]
1 | Cc1cc(NC(=O)C(=O)O)cc2ccn(Cc3ccc(O)c(C(C)C)c3)c12 [Example 108] | 190 | 54
2 | Cc1cc2c(NC(=O)C(=O)O)cccc2n1Cc1ccc(O)c(C(C)C)c1 [Example 72] | 230 | 40
3 | CC(C)c1cc(Cn2c(C(F)(F)F)cc3c(NC(=O)C(=O)O)cccc32)ccc1O [Example 119] | 57 | 15
4 | CCC(C)c1cc(Cn2c(C)cc3c(NC(=O)C(=O)O)ccc(C)c32)ccc1O (stereo not shown) [Example 122] | 24 | 2.6
5 | CCOC(=O)C(=O)Nc1ccc(C)c2c1ccn2Cc1ccc(O)c(C(C)C)c1 [Example 15] | 490 | 60
6 | Cc1cc(NC(=O)CC(=O)O)cc2ccn(Cc3ccc(O)c(C(C)C)c3)c12 [Example 109] | > 10000 | 600
7 | CCOC(=O)C(=O)Nc1cccc2c1cc(C)n2Cc1ccc(O)c(C(C)C)c1 [Example 8] | 370 | 72
8 | Cc1ccc(NC(=O)CC(=O)O)c2cc(C)n(Cc3ccc(O)c(C(O)c4ccc(F)cc4)c3)c12 (single isomer, unassigned; (+)) [Example 130, (+)-N-(1-{3-[(4-fluorophenyl)hydroxymethyl]-4-hydroxybenzyl}-2,7-dimethyl-1H-indol-4-yl)malonamic acid] | 5200 | 150
9 | Cc1ccc(NC(=O)CCC(=O)O)c2cc(C)n(Cc3ccc(O)c(C(C)C)c3)c12 [Example 93] | 650 | 260
10 | Cc1ccc(NC(=O)C(F)C(=O)O)c2cc(C)n(Cc3ccc(O)c(C(C)C)c3)c12 (stereo not shown) [Example 88] | 120 | 13
11 | CCOC(=O)C(=O)Nc1ccc(C)c2c1ccn2Cc1ccc(O)c(C(O)c2ccc(F)cc2)c1 (stereo not shown) [Example 56, Ethyl N-(1-{3-[(4-fluorophenyl)hydroxymethyl]-4-hydroxybenzyl}-7-methyl-1H-indol-4-yl)oxamate] | 480 | 84
12 | CCOC(=O)C(=O)Nc1ccc(C)c2c1cc(C)n2Cc1ccc(O)c(C(C)C)c1 [Example 21] | 37 | 6.3
13 | Cc1ccc(NC(=O)C(C)C(=O)O)c2cc(C)n(Cc3ccc(O)c(C(C)C)c3)c12 (stereo not shown) [Example 89] | 870 | 120
14 | Cc1ccc(NC(=O)CC(=O)O)c2cc(C)n(Cc3ccc(O)c(Cc4ccc(F)cc4)c3)c12 [Example 100] | 600 | 28
15 | CCOC(=O)C(=O)Nc1cccc2c1c(C)c(C)n2Cc1ccc(O)c(C(C)C)c1 [Example 19] | 280 | 56
16 | CCCc1cc(Cn2c(C)cc3c(NC(=O)CC(=O)O)ccc(C)c32)ccc1O [Example 117] | 640 | 36
17 | CC(C)c1cc(Cc2c[nH]c3c(NC(=O)CC(=O)O)cccc23)ccc1O [Example 113] | > 10000 | 320
18 | CC(C)c1cc(Cn2ccc3c(NC(=O)CC(=O)O)cc(Br)cc32)ccc1O [Example 77] | > 10000 | 570
19 | Cc1ccc(NC(=O)C(=O)O)c2ccn(Cc3ccc(O)c(C(C)C)c3)c12 [Example 79] | 5200 | 130
20 | CCOC(=O)CC(=O)Nc1ccc(C)c2c1cc(C)n2Cc1ccc(O)c(C(O)c2ccc(F)cc2)c1 (stereo not shown) [Example 57, Ethyl N-(1-{3-[(4-fluorophenyl)hydroxymethyl]-4-hydroxybenzyl}-2,7-dimethyl-1H-indol-4-yl)malonamate] | 3800 | 24
21 | CC(C)c1cc(Cn2ccc3cc(NC(=O)C(=O)O)ccc32)ccc1O [Example 105] | 970 | 260
22 | Cc1ccc(NC(=O)CC(=O)O)c2cc(C)n(Cc3ccc(O)c(Br)c3)c12 [Example 65] | > 10000 | 470
23 | CC(C)c1cc(Cn2c(C(F)(F)F)cc3c(NC(=O)CC(=O)O)cccc32)ccc1O [Example 76] | 610 | 67
24 | CC(C)c1cc(Cn2ccc3c(NC(=O)CC(=O)O)cccc32)ccc1O [Example 69] | > 10000 | 430

Row | Structure (SMILES) | IC50 (recombinant human TRα) [nM] | IC50 (recombinant human TRβ) [nM]
25 | Cc1cc2c(NC(=O)CC(=O)O)cccc2n1Cc1ccc(O)c(C(C)C)c1 [Example 73] | 5100 | 210
26 | CCc1cc2c(NC(=O)Cc3nnn[nH]3)cccc2n1Cc1ccc(O)c(C(C)C)c1 [Example 41] | > 10000 | 650
27 | CC(C)c1cc(Cn2ccc3c(NC(=O)C(=O)O)cc(Br)cc32)ccc1O [Example 120] | 380 | 63
28 | CCc1cc2c(NC(=O)CC(=O)O)cccc2n1Cc1ccc(O)c(C(C)C)c1 [Example 75] | > 10000 | 550
29 | CCc1cc2c(NC(=O)C(=O)O)cccc2n1Cc1ccc(O)c(C(C)C)c1 [Example 118] | 280 | 91
30 | Cc1ccc(NC(=O)C(=O)O)c2cc(C)n(Cc3ccc(O)c(C(F)(F)F)c3)c12 [Example 114] | 180 | 49
31 | Cc1ccc(NC(=O)C(=O)O)c2cc(C)n(Cc3ccc(O)c(C(C)C)c3)c12 [Example 85] | 24 | 3.1
32 | CCOC(=O)C(=O)Nc1cccc2c1ccn2Cc1ccc(O)c(C(C)C)c1 [Example 1, Ethyl N-[1-(4-hydroxy-3-isopropylbenzyl)-1H-indol-4-yl]oxamate] | 1500 | 220
33 | Cc1ccc(NC(=O)C(=O)O)c2cc(C)n(Cc3ccc(O)c(CCc4ccccc4)c3)c12 [Example 101] | 2200 | 390
34 | CC(C)c1cc(Cn2ncc3c(NC(=O)C(=O)O)cccc32)ccc1O [Example 111] | > 10000 | 1400
35 | Cc1cc2c(OCC(=O)O)cccc2n1Cc1ccc(O)c(C(C)C)c1 [Example 74] | 2700 | 200
36 | CCC(C)c1cc(Cn2c(C)cc3c(NC(=O)CC(=O)O)ccc(C)c32)ccc1O (stereo not shown) [Example 123] | 170 | 9.4
37 | CCOC(=O)CC(=O)Nc1ccc(C)c2c1cc(C(F)(F)F)n2Cc1ccc(O)c(C(C)C)c1 [Example 26] | 3400 | 310
38 | Cc1c(C)n(Cc2ccc(O)c(C(C)C)c2)c2cccc(NC(=O)C(=O)O)c12 [Example 83] | 85 | 27
39 | CC(C)c1cc(Cn2ccc3c(NC(=O)CC(=O)O)ccc(Cl)c32)ccc1O [Example 78] | 230 | 36
40 | Cc1ccc(NC(=O)CC(=O)O)c2cc(C)n(Cc3ccc(O)c4ccccc34)c12 [Example 115] | 3600 | 130
41 | Cc1ccc(NC(=O)Cc2nnn[nH]2)c2cc(C)n(Cc3ccc(O)c(C(C)C)c3)c12 [Example 43] | 450 | 8.5
42 | Cc1ccc(NC(=O)CC(=O)O)c2cc(C)n(Cc3ccc(O)c(C(O)c4ccc(F)cc4)c3)c12 (single isomer, unassigned; (-)) [Example 131, (−)-N-(1-{3-[(4-fluorophenyl)hydroxymethyl]-4-hydroxybenzyl}-2,7-dimethyl-1H-indol-4-yl)malonamic acid] | 99 | 7.1
43 | Cc1ccc(NC(=O)CC(=O)O)c2cc(C)n(Cc3ccc(O)c(C(O)c4ccc(F)cc4)c3)c12 (stereo not shown) [Example 129, N-(1-{3-[(4-fluorophenyl)hydroxymethyl]-4-hydroxybenzyl}-2,7-dimethyl-1H-indol-4-yl)malonamic acid] | 260 | 7.5
44 | Cc1ccc(NC(=O)C(=O)O)c2cc(C)n(Cc3ccc(O)c(Cc4ccc(F)cc4)c3)c12 [Example 125] | 66 | 8.7
45 | Cc1ccc(NC(=O)CC(=O)O)c2cc(C)n(Cc3ccc(O)c(C(C)C)c3)c12 [Example 86] | 670 | 16
46 | Cc1ccc(NC(=O)Cc2nnn[nH]2)c2ccn(Cc3ccc(O)c(C(C)C)c3)c12 [Example 42] | 8200 | 150
47 | Cc1ccc(NCCC(=O)O)c2ccn(Cc3ccc(O)c(C(C)C)c3)c12 [Example 82] | 1600 | 1100
